“Also recorded” adds a separate entry of the source.
Tests used:
[1] = test system: subjects including normal individuals; assay: Safety tests of continuous intravenous injection of adrenomedullin in subjects including normal individuals; assay type: in vivo, human
Protocol: (§1) The safety of continuous intravenous injection of adrenomedullin for 90 minutes was confirmed in 28 subjects including normal individuals. […] In the present Examples, 2 weeks of the animal test period was set to the continuous administration period.

[2] = test system: DSS enteritis (diffuse colitis); assay: Administration in DSS enteritis (diffuse colitis) model; assay type: in vivo; settings: 2.5 μg/kg body weight
[3] = test system: various disease model animals; assay: Continuous intravenous injection of adrenomedullin for 1 month in disease model animals; assay type: in vivo; settings: continuous intravenous injection for 1 month
Protocol: as §1

[4] = test system: colitis model; settings: Gonzalez et al.; intraperitoneal administration of 12 μg/kg body weight; cited from earlier work
[5] = test system: inflammatory bowel disease model; assay type: in vivo
Description: Thus, in the adrenomedullin administration, a low dose to an extent not greatly affecting circulatory dynamics is preferably used; a high dose rather makes it worse.

[6] = test system: large bowel artificial ulcer model; assay: Enema administration to a large bowel artificial ulcer model; assay type: in vivo; settings: 5.0 μg/kg body weight
[7] = test system: patients with steroid-resistant or steroid-dependent ulcerative colitis; assay: Continuous intravenous administration of adrenomedullin to patients with intractable ulcerative colitis; assay type: in vivo, human; settings: for DAI (Average): 6 cases, immediately before administration 9.0 ± 1.4; for Endoscopic findings in the large bowel: maintenance of remission: continuation treatment azathioprine 50 mg/day

CC[C@H](C)[C@H](NC(=O)[C@H](CCC(N)=O)NC(=O)[C@H](Cc1c[nH]cn1)NC(=O)[C@H](C)NC(=O)[C@H](CC(C)C)NC(=O)[C@H](CCCCN)NC(=O)[C@H](CCC(N)=O)NC(=O)[C@@H](NC(=O)[C@@H](NC(=O)[C@@H]1CSSC[C@H](NC(=O)CNC(=O)[C@H](Cc2ccccc2)NC(=O)[C@H](CO)NC(=O)[C@H](CCCNC(=N)N)NC(=O)[C@H](CC(C)C)NC(=O)CNC(=O)[C@H](CCC(N)=O)NC(=O)[C@H](Cc2ccccc2)NC(=O)[C@H](CC(N)=O)NC(=O)[C@H](CC(N)=O)NC(=O)[C@H](CCSC)NC(=O)[C@H](CO)NC(=O)[C@H](CCC(N)=O)NC(=O)[C@H](CCCNC(=N)N)NC(=O)[C@@H](N)Cc2ccc(O)cc2)C(=O)N[C@@H](CCCNC(=N)N)C(=O)N[C@@H](Cc2ccccc2)C(=O)NCC(=O)N[C@@H]([C@@H](C)O)C(=O)N1)[C@@H](C)O)C(C)C)C(=O)N[C@@H](Cc1ccc(O)cc1)C(=O)N[C@@H](CCC(N)=O)C(=O)N[C@@H](Cc1ccccc1)C(=O)N[C@H](C(=O)N[C@@H](CC(=O)O)C(=O)N[C@@H](CCCCN)C(=O)N[C@@H](CC(=O)O)C(=O)N[C@@H](CCCCN)C(=O)N[C@@H](CC(=O)O)C(=O)N[C@@H](CC(N)=O)C(=O)N[C@H](C(=O)N[C@@H](C)C(=O)N1CCC[C@H]1C(=O)N[C@@H](CCCNC(=N)N)C(=O)N[C@@H](CO)C(=O)N[C@@H](CCCCN)C(=O)N[C@H](C(=O)N[C@@H](CO)C(=O)N1CCC[C@H]1C(=O)N[C@@H](CCC(N)=O)C(=O)NCC(=O)N[C@@H](Cc1ccc(O)cc1)C(N)=O)[C@@H](C)CC)C(C)C)[C@@H](C)O [adrenomedullin, synthetic human adrenomedullin]
Blood pressure reduction ([1]; 2.5 pmol/kg body weight/min, continuous administration for 27 hours): more than 20 mmHg
Safety of continuous intravenous injection ([1]; 90 minutes, 28 subjects including normal individuals): confirmed
Adverse events ([1]; continuous intravenous injection for 27 hours, 12 subjects): no adverse event was observed
Effect in DSS enteritis (diffuse colitis) [2]: a high effect has also been observed
Safety and efficacy [3]: confirming the safety and efficacy thereof
Efficacy in colitis model [4]: has shown the efficacy
Curve of adrenomedullin dose versus anti-inflammatory/mucosa-repairing effect ([5]; animal experiments): anti-bell shape
Blood pressure reduction at the optimal (low) dose ([5]; in vivo): proved not to cause blood pressure reduction
Effect in large bowel artificial ulcer model [6]: highest
DAI (Average) ([7]; 12 weeks after start of administration, p 0.0001): 1.0 ± 1.15
DAI (Average) ([7]; 14 days after start of administration, 1.5 pmol/kg body weight/min i.v., 8 hours/day, p 0.0028): 5.0 ± 2.4
Mucosal regeneration in the affected areas ([7]; all 6 cases): prominent mucosal regeneration was also confirmed
Remission maintenance ([7]; all 6 cases): remission was maintained
Treatment effects ([7]; all 6 cases of adrenomedullin administration): treatment effects were confirmed in all cases
DAI improvement at 14 days after adrenomedullin administration ([7]; in 4 cases of 6): ≥ 4 points
Blood pressure reduction ([7]; one patient, 1.5 pmol/kg body weight/min during 14 days of administration): ≤ 10 mmHg
Variation in the blood concentration of adrenomedullin immediately after administration ([7]; one patient, 1.5 pmol/kg body weight/min i.v.): smaller than variation due to inflammation
Endoscopic findings in the large bowel: maintenance of remission ([7]; one patient, 3 months after adrenomedullin administration): confirmed the maintenance of the remission; also recorded: Remission maintenance was confirmed
Endoscopic findings in the large bowel: maintenance of remission ([7]; one patient, 12 months after adrenomedullin administration): also confirmed the maintenance of the remission
Endoscopic findings in the large bowel ([7]; one patient, after 14 days of continuous administration, 1.5 pmol/kg body weight/min, 8 hours/day): remission due to adrenomedullin was confirmed; also recorded: marked proliferation of regenerated epithelium (left) and scarring of shallow wide ulcer (right)
Symptoms considered to be side effects ([7]; one patient, during 14 days of administration): not observed
